In patent US20030224403A1 (priority 2002, published 2003):
“And” between values parts separate entries of the source, which are not always exact repeats. Identical values can stand only once. “Also recorded” adds a separate entry of the source. Residues, ends and D or L forms follow the SMILES beside them. *: point of attachment. Cbz = O=C(OCc1ccccc1)*; CH2F = FC*

How the values were obtained:
RAW 264.7 cells [1] = type: cell-based, mouse
B. anthracis spores [2] = settings: in vivo
[3] = test system: RAW 264.7 cells infected with anthrax (Sterne) spores; type: cell-based, mouse
[4] = test system: human PBMCs infected with anthrax (Sterne) spores; type: cell-based
B. anthracis spores [5] = settings: in vivo; remark: listed apart in the source
anthrax (Sterne) spores = test system: anthrax (Sterne) spores; set-up: species or system B. anthracis
RAW 264.7 cells [6] = type: cell-based, mouse; remark: listed apart in the source
RAW 264.7 cells [7] = type: cell-based, mouse; settings: 4 h
[8] = test system: human peripheral blood monocytes / PBMCs; type: cell-based
RAW 264.7 cells [9] = type: cell-based, mouse; remark: listed apart in the source
RAW 264.7 cells [10] = type: cell-based, mouse; remark: listed apart in the source
[11] = test system: Fas expression in RAW 264.7 cells; type: cell-based, mouse
[12] = mouse, in vivo, ip; cited from earlier work
RAW 264.7 cells [13] = type: cell-based, mouse; remark: listed apart in the source

COc1cccc(-c2cc(=O)c3ccccc3o2)c1N [PD 98059]
antitoxin effect (cell survival, MTT) (RAW 264.7 cells [1]): did not display an antitoxin effect; also recorded: do not increase cell survival; also recorded: none of these inhibitors increased cell survival

C[S+]([O-])c1ccc(-c2nc(-c3ccncc3)c(-c3ccc(F)cc3)[nH]2)cc1 (stereo not drawn) [SB 203580]
antitoxin effect (cell survival, MTT) (RAW 264.7 cells [1]): not able to decrease the effect of LeTx; also recorded: do not increase cell survival; also recorded: none of these inhibitors increased cell survival

COC(=O)C[C@H](NC(=O)[C@H](C)NC(=O)[C@@H](NC(=O)OCc1ccccc1)C(C)C)C(=O)CF [Z-VAD-fmk, benzyloxycarbonyl-Val-Ala-Asp-fluoromethylketone] (Cbz-Val-Ala-Asp(OMe)-CH2F)
survival of mice (B. anthracis spores [2]): dead by 11 days | mice alive by day 15 (B. anthracis spores [2]; ip): 20% | mice survived by day 15 (B. anthracis spores [2]; ip): 20% and 10%

CO/C1=C\C(C)=C\[C@@H](C)[C@@H](O)[C@@H](C)C/C(C)=C/C=C/[C@H](OC)[C@@H]([C@@H](C)[C@@H](O)[C@H](C)[C@@]2(O)C[C@@H](O)[C@H](C)[C@@H](C(C)C)O2)OC1=O [bafilomycin A1]
survival of mice (B. anthracis spores [2]): dead by 11 days

CC(C)C[C@H](NC(=O)[C@@H](O)[C@H](N)Cc1ccccc1)C(=O)O [bestatin]
bactericidal activity of Raw 264.7 cells [3]: restores a bactericidal activity | killing (bactericidal) activity of human PBMCs [4]: increased in a concentration dependent manner; also recorded: restores a bactericidal activity | survival of mice (B. anthracis spores [2]): dead by 11 days | mice dead by day 9 (B. anthracis spores [5]): more than 30% | intrinsic antibiotic activity (anthrax (Sterne) spores): undetectable

CCN(CC)CCCC(C)Nc1ccnc2cc(Cl)ccc12 (stereo not drawn) [chloroquine]
survival of mice (B. anthracis spores [2]): dead by 11 days

O=C(O)c1cn(C2CC2)c2cc(N3CCNCC3)c(F)cc2c1=O [ciprofloxacin]
mice alive after 11 days (B. anthracis spores [2]): 100% | mice survived at least 14 days (B. anthracis spores [2]): 100% | protection of mice (FIG. 29) (B. anthracis spores [2]): complete protection | survival (FIG. 29) (B. anthracis spores [2]): 10% | mice alive after 15 days (B. anthracis spores [5]): approximately 50% | survival of mice by day 12 (B. anthracis spores [5]): 50%

COC(=O)CC[C@H](NC(=O)[C@H](Cc1c[nH]c2ccccc12)NC(=O)OCc1ccccc1)C(=O)N[C@@H](Cc1cnc[nH]1)C(=O)N[C@@H](CC(=O)OC)C(=O)CF [inhibitor of caspase 1, Z-WEHD-FMK] (Cbz-WE(OMe)HD(OMe)-CH2F)
protection of cells against LeTx (membrane permeability staining) (RAW 264.7 cells [6]): different degree of protection

COC(=O)C[C@H](NC(=O)[C@H](C)NC(=O)[C@@H](NC(=O)[C@H](CC(=O)OC)NC(=O)[C@@H](NC(=O)OCc1ccccc1)C(C)C)C(C)C)C(=O)CF [inhibitor of caspase 2, Z-VDVAD-FMK] (Cbz-VD(OMe)VAD(OMe)-CH2F)
protection of cells against LeTx (membrane permeability staining) (RAW 264.7 cells [6]): different degree of protection

COC(=O)CC[C@H](NC(=O)[C@H](CC(=O)OC)NC(=O)OCc1ccccc1)C(=O)N[C@H](C(=O)N[C@@H](CC(=O)OC)C(=O)CF)C(C)C [inhibitor of caspase 3, Z-DEVD-FMK]
protection of cells against LeTx (membrane permeability staining) (RAW 264.7 cells [6]): different degree of protection

CC[C@H](C)[C@H](NC(=O)[C@H](CCC(=O)OC)NC(=O)[C@@H](NC(=O)OCc1ccccc1)C(C)C)C(=O)N[C@@H](CC(=O)OC)C(=O)CF [inhibitor of caspase 6, Z-VEID-FMK] (Cbz-VE(OMe)ID(OMe)-CH2F)
protection of cells against LeTx (membrane permeability staining) (RAW 264.7 cells [6]): most active

CC[C@H](C)[C@H](NC(=O)OCc1ccccc1)C(=O)N[C@@H](CCC(=O)OC)C(=O)N[C@H](C(=O)N[C@@H](CC(=O)OC)C(=O)CF)[C@@H](C)O [inhibitor of caspase 8, Z-IETD-FMK] (Cbz-IE(OMe)TD(OMe)-CH2F)
protection of cells against LeTx (membrane permeability staining) (RAW 264.7 cells [6]): most active

COC(=O)CC[C@H](NC(=O)[C@H](CC(C)C)NC(=O)OCc1ccccc1)C(=O)N[C@@H](Cc1cnc[nH]1)C(=O)N[C@@H](CC(=O)OC)C(=O)CF [inhibitor of caspase-9, Z-LEHD-FMK] (Cbz-LE(OMe)HD(OMe)-CH2F)
protection of cells against LeTx (membrane permeability staining) (RAW 264.7 cells [6]): unable to protect

NC[C@@H]1O[C@H](O[C@H]2[C@@H](O)[C@H](O[C@@H]3[C@@H](O)[C@H](N)C[C@H](N)[C@H]3O[C@H]3O[C@H](CN)[C@@H](O)[C@H](O)[C@H]3N)O[C@@H]2CO)[C@H](N)[C@@H](O)[C@@H]1O [neomycin]
mice alive after 11 days (B. anthracis spores [2]): 100% | survival of mice after 10 days (B. anthracis spores [5]): less than 20%

CN[C@@H]1C[C@H]2O[C@@](C)([C@@H]1OC)n1c3ccccc3c3c4c(c5c6ccccc6n2c5c31)C(=O)NC4 [staurosporine]
mitochondrial transmembrane potential (JC-1 staining) (RAW 264.7 cells [7]): JC-1 staining changes similar to LeTx | fluorescence pattern (YO-PRO-1) of human monocytes [8]: fluorescence pattern typical of apoptotic cells

COc1ccc(CCN(C)CCCC(C#N)(c2ccc(OC)c(OC)c2)C(C)C)cc1OC (stereo not drawn) [verapamil]
survival of mice (B. anthracis spores [2]): dead by 11 days

GM-CSF: recombinant murine granulocyte-macrophage colony stimulating factor
overall cell survival and relative number of apoptotic cells in presence of LeTx (RAW 264.7 cells [9]): substantially increased | prevention of LeTx-induced apoptosis (RAW 264.7 cells [9]): incapable of preventing apoptosis completely | protection of Raw 264.7 cells from LeTx (RAW 264.7 cells [9]): partially protected | effect of murine cytokine on cell lysis by LeTx (RAW 264.7 cells [10]): increased cell survival | Fas expression after stimulation with cytokine [11]: greatly increased | mice survived after 24 days (B. anthracis spores [2]; ip): 20% | toxicity in mice [12]: No toxicity

IL-6: cytokine
cell viability relative to cells treated with toxin only (MTT) (RAW 264.7 cells [13]): increased cell viability

TNF-α
effect of murine cytokine on cell lysis by LeTx (RAW 264.7 cells [10]): greatly increased cell lysis | Fas expression after stimulation with cytokine [11]: greatly increased

Z-YVAD [inhibitor of caspase 4]
protection of cells against LeTx (membrane permeability staining) (RAW 264.7 cells [6]): most active

trypsin
survival of mice (B. anthracis spores [2]): dead by 11 days

B1: IL-12: murine interleukin-12 (protein, UniProt P29459 23-219; P29460 23-328, looked up)
Interleukin-12 subunit alpha: RNLPVATPDPGMFPCLHHSQNLLRAVSNMLQKARQTLEFYPCTSEEIDHEDITKDKTSTVEACLPLELTKNESCLNSRETSFITNGSCLASRKTSFMMALCLSSIYEDLKMYQVEFKTMNAKLLMDPKRQIFLDQNMLAVIDELMQALNFNSETVPQKSSLEEPDFYKTKIKLCILLHAFRIRAVTIDRVMSYLNAS
Interleukin-12 subunit beta: IWELKKDVYVVELDWYPDAPGEMVVLTCDTPEEDGITWTLDQSSEVLGSGKTLTIQVKEFGDAGQYTCHKGGEVLSHSLLLLHKKEDGIWSTDILKDQKEPKNKTFLRCEAKNYSGRFTCWWLTTISTDLTFSVKSSRGSSDPQGVTCGAATLSAERVRGDNKEYEYSVECQEDSACPAAEESLPIEVMVDAVHKLKYENYTSSFFIRDIIKPDPPKNLQLKPLKNSRQVEVSWEYPDTWSTPHSYFSLTFCVQVQGKSKREKKDRVFTDKTSATVICRKNASISVRAQDRYYSSSWSEWASVPCS
effect of murine cytokine on cell lysis by LeTx (RAW 264.7 cells [10]): without effect

B2: IL-4: cytokine (protein, UniProt P05112 25-153, looked up)
Interleukin-4: HKCDITLQEIIKTLNSLTEQKTLCTELTVTDIFAASKNTTEKETFCRAATVLRQFYSHHEKDTRCLGATAQQFHRHKQLIRFLKRLDRNLWGLAGLNSCPVKEANQSTLENFLERLKTIMREKYSKCSS
cell viability relative to cells treated with toxin only (MTT) (RAW 264.7 cells [13]): increased cell viability

B3: IFN-γ: recombinant mouse interferon-gamma (protein, UniProt P01579 24-161, looked up)
Interferon gamma: QDPYVKEAENLKKYFNAGHSDVADNGTLFLGILKNWKEESDRKIMQSQIVSFYFKLFKNFKDDQSIQKSVETIKEDMNVKFFNSNKKKRDDFEKLTNYSVTDLNVQRKAIHELIQVMAELSPAAKTGKRKRSQMLFRG
effect of murine cytokine on cell lysis by LeTx (RAW 264.7 cells [10]): increased cell susceptibility to lysis | Fas expression after stimulation with cytokine [11]: greatly increased
